Measurements: the supplement of paper PMC11061612

Experiments:
KP-N-YN (Neuroblastoma) = test: combination Emax (second highest fraction inhibited in the dose matrix, 72 h); higher = more inhibition; extreme values may be limits of the assay
How it was run: (§1)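 Cell lines in DMEM/F12 or RPMI with 10% FBS were plated in 1536-well plates, held 24 hours at 37°C, 5% CO2, then given two-drug dose matrices for 72 hours (DMSO typically 0.2%). Viability was read by CellTiter-Glo 2.0 luminescence and scaled as inhibition from 0 (vehicle wells) to 1 (blank wells). Combination Emax is the second-highest inhibition in the matrix; Bliss excess is observed combination effect minus expected EA + EB − EA·EB, EA and EB being single-agent effects.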

[1] = tested on: DU-4475 (Breast Carcinoma); test: Bliss excess, mean over the matrix (fraction); higher = more synergy
How it was run: as §1

[2] = tested on: GA-10 (Burkitt's Lymphoma); test: as above
How it was run: as §1

[3] = tested on: LS-411N (Colorectal Carcinoma); test: as above
How it was run: as §1

[4] = tested on: NCI-H2228 (Lung Adenocarcinoma); test: as above
How it was run: as §1

[5] = tested on: A253 (Head and Neck Carcinoma); test: as above
How it was run: as §1

[6] = tested on: JVM-2 (B-Cell Non-Hodgkin's Lymphoma); test: as above
How it was run: as §1

[7] = tested on: HT55 (Colorectal Carcinoma); test: as above
How it was run: as §1

[8] = tested on: HCC1428 (Breast Carcinoma); test: as above
How it was run: as §1

[9] = tested on: CAL-27 (Oral Cavity Carcinoma); test: as above
How it was run: as §1

[10] = tested on: Jurkat (T-Lymphoblastic Leukemia); test: as above
How it was run: as §1

EW-16 (Ewing's Sarcoma) = test: as above
How it was run: as §1

[11] = tested on: NCI-H841 (Small Cell Lung Carcinoma); test: combination Emax (second highest fraction inhibited in the dose matrix, 72 h); higher = more inhibition; extreme values may be limits of the assay
How it was run: as §1

MKN1 (Gastric Carcinoma) [12] = test: as above
How it was run: as §1

[13] = tested on: NCI-H841 (Small Cell Lung Carcinoma); test: Bliss excess, mean over the matrix (fraction); higher = more synergy
How it was run: as §1

MKN1 (Gastric Carcinoma) [14] = test: as above
How it was run: as §1
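For Bliss excess, mean over the matrix in this document: after 72 h of two-drug dosing.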

Compound | combination Emax (KP-N-YN (Neuroblastoma)) | Bliss excess [1] | Bliss excess [2] | Bliss excess [3] | Bliss excess [4] | Bliss excess [5] | Bliss excess [6] | Bliss excess [7] | Bliss excess [8] | Bliss excess [9] | Bliss excess [10] | Bliss excess (EW-16 (Ewing's Sarcoma)) | combination Emax [11] | combination Emax (MKN1 (Gastric Carcinoma) [12]) | Bliss excess [13] | Bliss excess (MKN1 (Gastric Carcinoma) [14])
Cc1cc2ncnn2cc1Nc1ncc2c(n1)n(C1CCOCC1)c(=O)n2C [AZD7648] + C[C@@H]1COCCN1C2=NC(=NC(=C2)C3(CC3)[S@](=N)(=O)C)C4=C5C=CNC5=NC=C4 [AZD6738] (first compound max 10 µM, 7x7, partner max 10 µM) | 0.947 | 0.0019 | 0.0131 | -0.0185 | -0.0156 | 0.0402 | -0.0555 | 0.0268 | -0.0086 | -0.0327 | 0.011 | 0.0269 |  |  |  | 
Cc1cc2ncnn2cc1Nc1ncc2c(n1)n(C1CCOCC1)c(=O)n2C [AZD7648] + C=CCn1c(=O)c2cnc(Nc3ccc(N4CCN(C)CC4)cc3)nc2n1-c1cccc(C(C)(C)O)n1 [AZD1775] (first compound max 10 µM, partner max 1 µM) | 0.942 | -0.051 | 0.037 | -0.0318 | 0.0384 | 0.0493 | -0.0458 | -0.0027 | 0.0179 | 0.0108 | 0.0183 | -0.0471 |  |  |  | 
CN(CCO)CC[C@H](CSc1ccccc1)Nc1ccc(S(=O)(=O)NC(=O)c2ccc(N3CCC([C@@H](O)c4ccccc4-c4ccc(Cl)cc4)CC3)cc2)cc1S(=O)(=O)C(F)(F)F [AZD4320] + Nc1ccn([C@@H]2O[C@H](CO)[C@@H](O)C2(F)F)c(=O)n1 [Gemcitabine] (first compound max 1 µM, 7x7, partner max 0.3 µM) |  |  |  |  |  |  |  |  |  |  |  |  | 0.322 | 0.759 | -0.0317 | 0.0005
CN(CCO)CC[C@H](CSc1ccccc1)Nc1ccc(S(=O)(=O)NC(=O)c2ccc(N3CCC([C@@H](O)c4ccccc4-c4ccc(Cl)cc4)CC3)cc2)cc1S(=O)(=O)C(F)(F)F [AZD4320] + CC(=O)O[C@H]1C(=O)[C@@]2(C)[C@H]([C@H](OC(=O)c3ccccc3)[C@]3(O)C[C@H](OC(=O)[C@H](O)[C@@H](NC(=O)c4ccccc4)c4ccccc4)C(C)=C1C3(C)C)[C@]1(OC(C)=O)CO[C@@H]1C[C@@H]2O [Paclitaxel] (first compound max 1 µM, 7x7, partner max 3 µM) |  |  |  |  |  |  |  |  |  |  |  |  | 0.968 | 0.91 | 0.0423 | 0.0566
Cc1cc2ncnn2cc1Nc1ncc2c(n1)n(C1CCOCC1)c(=O)n2C [AZD7648] + CCN(CCO)CCCOc1ccc2c(Nc3cc(CC(=O)Nc4cccc(F)c4)[nH]n3)ncnc2c1 [AZD2811] (first compound max 10 µM, 7x7, partner max 1 µM) | 0.6 | 0.0035 | 0.112 | 0.0255 | -0.0127 | 0.0411 | 0.0382 | -0.0003 | 0.0436 | 0.0107 | -0.01 | 0.0436 |  |  |  | 
N#Cc1cnc(Nc2cc(NC[C@H]3CNCCO3)c(C(F)(F)F)cn2)cn1 [SRA737] + O=c1[nH]cc(F)c(=O)[nH]1 [5-Fluorouracil] (first compound max 10 µM, 7x7, partner max 20 µM) |  |  |  |  |  |  |  |  |  |  |  |  | 0.183 | 0.69 | -0.0189 | 0.0221
Cc1cc2ncnn2cc1Nc1ncc2c(n1)n(C1CCOCC1)c(=O)n2C [AZD7648] + COc1cc([C@@H]2c3cc4c(cc3[C@@H](O[C@@H]3O[C@@H]5CO[C@@H](C)O[C@H]5[C@H](O)[C@H]3O)[C@H]3COC(=O)[C@H]23)OCO4)cc(OC)c1O [Etoposide] (first compound max 10 µM, 7x7, partner max 10 µM) | 0.677 |  |  |  |  |  |  |  |  |  |  |  | 0.441 | 0.922 | 0.0261 | 0.0865
Cc1cc2ncnn2cc1Nc1ncc2c(n1)n(C1CCOCC1)c(=O)n2C [AZD7648] + CN(C)CCCOc1ccc(-c2ccc3ncc4c(c3c2)n(C2CCOCC2)c(=O)n4C)cn1 [AZD0156] (first compound max 10 µM, 7x7, partner max 1 µM) | 0.265 | -0.0209 | -0.0067 | -0.0081 | 0.0707 | 0.0149 | -0.0297 | 0.0035 | -0.0052 | 0.0004 | 0.0382 | 0.0073 |  |  |  | 
